Assay results taken from paper PMC7377239, “Cardiovascular Effects of Polychlorinated Biphenyls and Their Major Metabolites” (Environmental Health Perspectives, 2020).

Legend:
[1] = system: iCell endothelial cells (human iPSC-derived ECs); test: High-content imaging cytotoxicity in iCell endothelial cells, 24 h; type: cell-based; settings: iPSC-EC, 0.00 µM = 100.00
How it was run: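 Human iPSC-derived endothelial cells (passages 1–5) were grown to a fibronectin-coated monolayer, then exposed 24 h at 37 °C with 0.5% DMSO vehicle. Staining was Hoechst 33342, MitoTracker Orange and calcein AM, read by high-content imaging. Point of departure came from 4-parameter logistic fits, with a 1-SD vehicle cutoff and 100 µM as the top concentration.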

[2] = system: HUVECs; test: High-content imaging cytotoxicity in HUVECs, 24 h; type: cell-based, human; settings: HUVECs, 24 hr, 0.00 µM = 100.00
How it was run: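 Point-of-departure values derive from four-parameter logistic fits of vehicle-normalized imaging phenotypes (Hoechst 33342, MitoTracker Orange, calcein AM). The fits follow 24 h exposure of HUVEC monolayers at 37°C and 5% CO2, with a top tested concentration of 100μM.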

`Clc1ccc(Cl)c(-c2c(Cl)ccc(Cl)c2Cl)c1Cl` [(-)-PCB 136, 2,2′,3,3′,6,6′-hexachlorobiphenyl] was tested, and the endo.cyto.24hr ([1]; 0.01 µM) was 97.58, the endo.mito.24hr ([1]; 0.01 µM) was 98.40 and the endo.mitoint.24hr ([1]; 0.01 µM) was 92.73. For the same compound, the endo.nma.24hr ([1]; 0.01 µM) was 101.21, the endo.tc.24hrs ([1]; 0.01 µM) was 97.58 and the endo.cyto.24hr ([1]; 0.10 µM) was 98.68. The endo.mito.24hr ([1]; 0.10 µM) was 99.17, the endo.mitoint.24hr ([1]; 0.10 µM) was 90.73 and the endo.nma.24hr ([1]; 0.10 µM) was 99.07. For the same compound, the endo.tc.24hrs ([1]; 0.10 µM) was 98.68, the endo.cyto.24hr ([1]; 1.00 µM) was 92.98 and the endo.mito.24hr ([1]; 1.00 µM) was 93.57. For the same compound, the endo.mitoint.24hr ([1]; 1.00 µM) was 89.65, the endo.nma.24hr ([1]; 1.00 µM) was 102.49 and the endo.tc.24hrs ([1]; 1.00 µM) was 92.98. The endo.cyto.24hr ([1]; 10.00 µM) was 96.25, the endo.mito.24hr ([1]; 10.00 µM) was 96.58 and the endo.mitoint.24hr ([1]; 10.00 µM) was 86.88. The endo.nma.24hr ([1]; 10.00 µM) was 101.21, the endo.tc.24hrs ([1]; 10.00 µM) was 96.25 and the endo.cyto.24hr ([1]; 100.00 µM) was 49.24. The endo.mito.24hr ([1]; 100.00 µM) was 43.24, the endo.mitoint.24hr ([1]; 100.00 µM) was 53.93 and the endo.nma.24hr ([1]; 100.00 µM) was 111.21. It also gave an endo.tc.24hrs ([1]; 100.00 µM) of 54.61, a huvec.mito.24hr ([2]; concentration 0.01 µM) of 77.23 and a huvec.mitoint.24hr ([2]; concentration 0.01 µM) of 84.43. The huvec.nma.24hr ([2]; concentration 0.01 µM) was 98.77, the huvec.mito.24hr ([2]; concentration 0.10 µM) was 130.40 and the huvec.mitoint.24hr ([2]; concentration 0.10 µM) was 73.90. For the same compound, the huvec.nma.24hr ([2]; concentration 0.10 µM) was 86.45, the huvec.mito.24hr ([2]; concentration 1.00 µM) was 92.50 and the huvec.mitoint.24hr ([2]; concentration 1.00 µM) was 88.05. For the same compound, the huvec.nma.24hr ([2]; concentration 1.00 µM) was 99.68, the huvec.mito.24hr ([2]; concentration 10.00 µM) was 30.92 and the huvec.mitoint.24hr ([2]; concentration 10.00 µM) was 10.83. For the same compound, the huvec.nma.24hr ([2]; concentration 10.00 µM) was 50.44, the huvec.mito.24hr ([2]; concentration 100.00 µM) was 29.50 and the huvec.mitoint.24hr ([2]; concentration 100.00 µM) was 15.66. The huvec.nma.24hr ([2]; concentration 100.00 µM) was 72.40.
